Data: ChEMBL document CHEMBL1147116 (Antimicrob Agents Chemother, 2007)
In brackets after ≈: the same amount, converted by molar mass.

What was measured:
[1] = Half life at 250 mg/24 hrs regimen in vitro PK model; assay type: ADME
Streptococcus pneumoniae [2] = experiment: fAUC/MIC ratio of Streptococcus pneumoniae ATCC 49610 at 320 mg
Streptococcus pneumoniae [3] = experiment: Bactericidal activity against Streptococcus pneumoniae ATCC 49619 at fAUC/MIC of 78 after 24 to 96 hrs in pharmacodynamic model
[4] = Peak free concentration at 75 mg/24 hrs regimen in vitro PK model; assay type: ADME
Streptococcus pneumoniae [5] = experiment: fAUC/MIC ratio of Streptococcus pneumoniae ATCC 49610 at 50 mg
Streptococcus pneumoniae [6] = experiment: fAUC/MIC ratio of Streptococcus pneumoniae ATCC 49610 at 250 mg
Streptococcus pneumoniae [7] = experiment: Bactericidal activity against Streptococcus pneumoniae ATCC 49619 with parC S79Y mutation at fAUC/MIC of 37 after 96 hrs in pharmacodynamic model; conditions: ATCC 49619, 96 h
Streptococcus pneumoniae [8] = experiment: Bactericidal activity against Streptococcus pneumoniae ATCC 49619 at fAUC/MIC of 119 after 24 to 96 hrs in pharmacodynamic model
Streptococcus pneumoniae [9] = experiment: Susceptibility of Streptococcus pneumoniae ATCC 49619 by microdilution method; assay type: functional
[10] = Peak free concentration at 150 mg/24 hrs regimen in vitro PK model; assay type: ADME
Streptococcus pneumoniae [11] = experiment: Bactericidal activity against Streptococcus pneumoniae ATCC 49619 at fAUC/MIC of 146 after 24 to 96 hrs in pharmacodynamic model
[12] = Half life at 320 mg/24 hrs regimen in vitro PK model; assay type: ADME
Streptococcus pneumoniae [13] = experiment: fAUC/MIC ratio of Streptococcus pneumoniae BSP-2443 at 50 mg
Streptococcus pneumoniae [14] = experiment: fAUC/MIC ratio of Streptococcus pneumoniae BSP-2443 at 75 mg
Streptococcus pneumoniae [15] = experiment: fAUC/MIC ratio of Streptococcus pneumoniae BSP-2443 at 100 mg
[16] = Peak free concentration at 100 mg/24 hrs regimen in vitro PK model; assay type: ADME
Streptococcus pneumoniae [17] = experiment: Bactericidal activity against Streptococcus pneumoniae ATCC 49619 at fAUC/MIC of 50.5 after 24 to 96 hrs in pharmacodynamic model
[18] = Half life at 150 mg/24 hrs regimen in vitro PK model; assay type: ADME
Streptococcus pneumoniae [19] = experiment: Bactericidal activity against Streptococcus pneumoniae BSP-2443 at fAUC/MIC of 51.3 after 24 to 96 hrs in pharmacodynamic model; conditions: BSP2443
Streptococcus pneumoniae [20] = experiment: fAUC/MIC ratio of Streptococcus pneumoniae ATCC 49619 at 100 mg
Streptococcus pneumoniae [21] = experiment: Bactericidal activity against Streptococcus pneumoniae ATCC 49619 with parC S79Y mutation at fAUC/MIC of 37 after 72 hrs in pharmacodynamic model; conditions: ATCC 49619, 72 h
Streptococcus pneumoniae [22] = experiment: Susceptibility of Streptococcus pneumoniae BSP-2443 by microdilution method; assay type: functional; conditions: BSP2443
Streptococcus pneumoniae [23] = experiment: Bactericidal activity against Streptococcus pneumoniae ATCC 49619 at fAUC/MIC of 65.3 after 24 to 96 hrs in pharmacodynamic model
[24] = Peak free concentration at 320 mg/24 hrs regimen in vitro PK model; assay type: ADME
Streptococcus pneumoniae [25] = experiment: Bactericidal activity against Streptococcus pneumoniae BSP-2443 at fAUC/MIC of 34 after 24 to 48 hrs in pharmacodynamic model; conditions: BSP2443
[26] = Half life at 75 mg/24 hrs regimen in vitro PK model; assay type: ADME
Streptococcus pneumoniae [27] = experiment: Bactericidal activity against Streptococcus pneumoniae BSP-2443 at fAUC/MIC of 60.2 after 24 to 96 hrs in pharmacodynamic model; conditions: BSP2443
[28] = Half life at 50 mg/24 hrs regimen in vitro PK model; assay type: ADME
Streptococcus pneumoniae [29] = experiment: fAUC/MIC ratio of Streptococcus pneumoniae ATCC 49619 at 150 mg
[30] = Peak free concentration at 50 mg/24 hrs regimen in vitro PK model; assay type: ADME
Streptococcus pneumoniae [31] = experiment: Bactericidal activity against Streptococcus pneumoniae BSP-2443 with parC S79Y, S52G, N91D mutation and gyrA S114G mutation at fAUC/MIC of 34 after 72 to 96 hrs in pharmacodynamic model; conditions: BSP2443
Streptococcus pneumoniae [32] = experiment: fAUC/MIC ratio of Streptococcus pneumoniae ATCC 49610 at 75 mg
[33] = Half life at 100 mg/24 hrs regimen in vitro PK model; assay type: ADME
Streptococcus pneumoniae [34] = experiment: Bactericidal activity against Streptococcus pneumoniae ATCC 49619 at fAUC/MIC of 37 after 24 to 48 hrs in pharmacodynamic model
[35] = Peak free concentration at 250 mg/24 hrs regimen in vitro PK model; assay type: ADME

CO/N=C1\CN(c2nc3c(cc2F)c(=O)c(C(=O)O)cn3C2CC2)CC1CN (stereo not given) [GEMIFLOXACIN]
half-life [1]: 7.22 h | fAUC/MIC (Streptococcus pneumoniae [2]): 146 | MIC (Streptococcus pneumoniae [3]): 0.03 µg/mL | Activity [4]: 0.17 µg/mL | fAUC/MIC (Streptococcus pneumoniae [5]): 37 | fAUC/MIC (Streptococcus pneumoniae [6]): 119 | MIC (Streptococcus pneumoniae [7]): 0.25 µg/mL | MIC (Streptococcus pneumoniae [8]): 0.03 µg/mL | MIC (Streptococcus pneumoniae [9]): 0.025 µg/mL (≈ 0.0642 µM) | Activity [10]: 0.31 µg/mL | MIC (Streptococcus pneumoniae [11]): 0.03 µg/mL | half-life [12]: 7.58 h | fAUC/MIC (Streptococcus pneumoniae [13]): 34 | fAUC/MIC (Streptococcus pneumoniae [14]): 51.3 | fAUC/MIC (Streptococcus pneumoniae [15]): 69.2 | Activity [16]: 0.23 µg/mL | MIC (Streptococcus pneumoniae [17]): 0.03 µg/mL | half-life [18]: 7.5 h | MIC (Streptococcus pneumoniae [19]): 0.03 µg/mL | fAUC/MIC (Streptococcus pneumoniae [20]): 65.3 | MIC (Streptococcus pneumoniae [21]): 0.25 µg/mL | MIC (Streptococcus pneumoniae [22]): 0.025 µg/mL (≈ 0.0642 µM) | MIC (Streptococcus pneumoniae [23]): 0.03 µg/mL | Activity [24]: 0.62 µg/mL | MIC (Streptococcus pneumoniae [25]): 0.03 µg/mL | half-life [26]: 7.19 h | MIC (Streptococcus pneumoniae [27]): 0.03 µg/mL | half-life [28]: 7.45 h | fAUC/MIC (Streptococcus pneumoniae [29]): 78 | Activity [30]: 0.12 µg/mL | MIC (Streptococcus pneumoniae [31]): 0.125 µg/mL | fAUC/MIC (Streptococcus pneumoniae [32]): 50.5 | half-life [33]: 8.22 h | MIC (Streptococcus pneumoniae [34]): 0.03 µg/mL | Activity [35]: 0.51 µg/mL
